The structures appear in SMILES notation.

Drawing on patent US8399459B2, “1,4 oxazines as BACE1 and/or BACE2 inhibitors” (Hoffmann-La Roche Inc., priority 2011, dated 2013), this text covers IC50 for one compound.

Type in all cases: in vitro ADME
For one assay, the target named is T1, CYP3A4 (Homo sapiens, UniProt P08684).
T1 construct: 0.2 mg/ml pooled human liver microsomes; from tissue; host or cells: pooled human liver microsomes
Briefly: CYP inhibition assay, human liver microsomes, midazolam 1′hydroxylase. The conditions noted are these: pooled human liver microsomes, read-out: CYP IC50 3A4. On the procedure:
(§1) Inhibition of cytochromes P450 (CYPs) 2C9, 2D6 and 3A4 was assessed using human liver microsomes and CYP-selective substrate metabolism reactions. 50 μl incubations were made up containing (finally) 0.2 mg/ml pooled human liver microsomes, 5 μM substrate (diclofenac for CYP2C9 [4′hydroxylase], dextromethorphan for CYP2D6 [O-demethylase] or midazolam for CYP3A4 [1′hydroxylase]), 0.25 μL DMSO containing test inhibitor and NADPH regenerating system. Test inhibitor concentrations of 50, 16.7, 5.6, 1.9, 0.6 and 0.2 μM were assessed in singlicate. Incubations were prewarmed to 37° C. for 10 minutes before initiation by addition of NADPH regenerating system. Incubations were quenched after 5 minutes (20 minutes for dextromethorphan) by addition of 50 μl cold acetonitrile containing 20 ng/ml 4-OH-diclofenac-13C6, 20 ng/mL dextrorphan-D3 and 20 ng/mL 1-OH-midazolam-D4. Quenched incubates were stored at −20° C. for at least 1 hour before centrifugation (20,000×g, 20 minutes). Supernatants were removed and diluted 1:1 with water prior to analysis using a RapidFire sample injector system and API4000 mass spectrometer. Peak areas for substrate, metabolite and stable-labelled metabolite standard were determined using MS/MS. The peak area ratios between the metabolite generated by the enzymatic reaction and the internal standard were used in subsequent calculations. The percentage of (DMSO) control activity was calculated for each incubate and IC50 values estimated by non-linear regression. Sulfaphenazole, quinidine or ketoconazole were tested in each CYP2C9, CYP2D6 or CYP3A4 inhibition experiment, respectively, to ensure assay sensitivity and reproducibility. (Validated assays for human cytochrome P450 activities, R. L. Walsky and R. S. Obach, Drug Metabolism and Disposition 32: 647-660, 2004. and S. Fowler and H. Zhang, The AAPS Journal, Vol. 10, No. 2, 410-424, 2008.)
(In general: Liver microsomes are vesicles of endoplasmic reticulum, rich in cytochrome P450 enzymes.)

Another assay concerns the target T2, CYP2C9 (Homo sapiens, UniProt P11712).
T2 construct: 0.2 mg/ml pooled human liver microsomes; from tissue; host or cells: pooled human liver microsomes
Briefly: CYP inhibition assay, human liver microsomes, diclofenac 4′hydroxylase. Conditions: pooled human liver microsomes, read-out: CYP IC50 2C9. On the procedure: as §1

The next assay deals with T3, CYP2D6 (Homo sapiens, UniProt P10635).
T3 construct: 0.2 mg/ml pooled human liver microsomes; from tissue; host or cells: pooled human liver microsomes
T3 sequence (P10635 whole entry): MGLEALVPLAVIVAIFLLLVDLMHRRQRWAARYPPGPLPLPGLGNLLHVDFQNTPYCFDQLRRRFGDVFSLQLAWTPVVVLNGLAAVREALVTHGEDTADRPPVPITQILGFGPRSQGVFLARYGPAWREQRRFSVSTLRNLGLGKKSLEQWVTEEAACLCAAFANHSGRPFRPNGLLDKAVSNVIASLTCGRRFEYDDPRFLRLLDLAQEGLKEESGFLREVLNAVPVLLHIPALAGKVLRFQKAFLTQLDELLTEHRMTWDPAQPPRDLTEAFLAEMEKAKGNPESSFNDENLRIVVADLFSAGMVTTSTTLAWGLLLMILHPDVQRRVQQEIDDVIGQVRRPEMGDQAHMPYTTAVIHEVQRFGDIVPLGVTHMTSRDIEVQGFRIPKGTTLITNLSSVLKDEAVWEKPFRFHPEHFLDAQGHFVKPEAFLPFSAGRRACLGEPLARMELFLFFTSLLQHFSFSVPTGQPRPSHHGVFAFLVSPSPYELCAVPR
Kind of assay: CYP inhibition assay, human liver microsomes, dextromethorphan O-demethylase. The conditions noted are these: pooled human liver microsomes, read-out: CYP IC50 2D6. On the procedure:
as §1

T1 sequence (P08684 whole entry): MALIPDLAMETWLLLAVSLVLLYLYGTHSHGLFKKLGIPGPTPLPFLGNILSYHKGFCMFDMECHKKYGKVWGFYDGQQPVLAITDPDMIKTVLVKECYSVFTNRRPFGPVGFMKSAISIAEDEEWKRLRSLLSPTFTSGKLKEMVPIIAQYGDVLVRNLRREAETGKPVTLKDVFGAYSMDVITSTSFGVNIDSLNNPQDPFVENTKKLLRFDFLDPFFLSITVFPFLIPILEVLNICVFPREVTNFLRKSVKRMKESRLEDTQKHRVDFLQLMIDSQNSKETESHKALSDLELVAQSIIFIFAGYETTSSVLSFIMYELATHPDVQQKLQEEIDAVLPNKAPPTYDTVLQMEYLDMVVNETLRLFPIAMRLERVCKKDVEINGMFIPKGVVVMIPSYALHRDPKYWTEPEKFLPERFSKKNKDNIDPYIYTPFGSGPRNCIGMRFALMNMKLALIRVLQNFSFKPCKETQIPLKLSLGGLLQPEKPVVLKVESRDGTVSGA
T2 sequence (P11712 whole entry): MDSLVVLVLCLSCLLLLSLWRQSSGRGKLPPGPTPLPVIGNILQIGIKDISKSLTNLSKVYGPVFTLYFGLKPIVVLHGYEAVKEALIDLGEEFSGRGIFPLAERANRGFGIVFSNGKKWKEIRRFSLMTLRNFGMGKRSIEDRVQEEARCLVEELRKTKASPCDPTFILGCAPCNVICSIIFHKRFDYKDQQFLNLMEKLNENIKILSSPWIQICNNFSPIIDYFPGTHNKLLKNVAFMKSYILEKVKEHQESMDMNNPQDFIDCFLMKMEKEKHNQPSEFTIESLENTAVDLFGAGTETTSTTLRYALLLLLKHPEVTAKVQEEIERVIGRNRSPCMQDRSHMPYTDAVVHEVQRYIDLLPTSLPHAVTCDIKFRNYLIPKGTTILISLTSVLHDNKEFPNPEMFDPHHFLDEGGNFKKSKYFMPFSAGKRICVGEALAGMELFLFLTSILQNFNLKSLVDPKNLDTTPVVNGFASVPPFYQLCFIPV

A word on the IC50: it is the concentration that inhibits the measured activity by half. In the case of `CC1(c2cccc(-c3cncnc3)c2)COCC(N)=N1` (stereo not drawn) [Example 35, 5-Methyl-5-(3-pyrimidin-5-yl-phenyl)-5,6-dihydro-2H-[1,4]oxazin-3-ylamine], the IC50 on CYP3A4 is > 50 µM; on CYP2C9, > 50 µM; on CYP2D6, 18 µM.
